Experimental data as given in patent publication US20110195505A1, “BACTERIAL STRAINS FOR BUTANOL PRODUCTION” (priority 2009, published 2011).
Marks after values point to notes of the source that are not given here.

Experiments:
[1] = test system: BP63 (L. plantarum PN0512ΔpyrFΔfabZ1); assay: Fatty acid supplements supporting growth of the fabZ1 mutant; type: cell-based; conditions: fatty acid supplied at 80 mg/L; overnight incubation, OD600
Procedure: With 100 or 200 mg/liter of oleic acid the growth of BP63 was equivalent to that of the fabZ1^+ control strain, BP15. […] Thus, we conclude that fabZ1 in L. plantarum has the same function as FabN in E. faecalis (Wang, H. and Cronan, J. E. 2004. Functional replacement of the FabA and FabB proteins of Escherichia coli fatty acid synthesis by Enterococcus faecalis FabZ and FabF homologs. J. Biol. Chem. 279, 34489-95). To further test the range of fatty acid supplements that support growth of the fabZ1 mutant, several other fatty acids were supplied at 80 mg/L to the semi-synthetic LAB medium as described above. BP63 and the parental control BP15 were inoculated from the working stocks. After overnight incubation, the OD600 was measured. The growth of BP15 was not inhibited by any of the fatty acids tested. The Table 9 below summarizes the results for the fabZ1 mutant strain, BP63.

[2] = test system: L. plantarum strain PN0512; assay: FAME analysis of membrane lipids of stearic acid fed cultures; type: cell-based, Lactobacillus plantarum
Procedure: The membrane lipids were extracted by modified Bligh and Dyer protocol (Can. J. Biochem. Physiol. (1959) 37:911-17). The cell pellet prepared as described above was suspended in a mixture of 0.5 ml CHCl3 and 1 ml CH3OH, and transferred to a 13×100 mm tube with a screw top cap. The cap was screwed on about ¾ of the way (i.e., not tight), and the tube was incubated at 40° C. for 30 min. The tube was cooled and an additional 0.5 ml CHCl3 and 1 ml H2O were added the mixture. […] The two phases were equilibrated by vortexing. The two phases were allowed to separate; then the lower CHCl3 layer was removed and transferred to another 13×100 mm tube with a screw top cap. With the cap removed, the CHCl3 was evaporated under a stream of N2. Methyl esters of the fatty acids in the residue were then formed using one of the following procedures.
1 ml freshly made 1.0 M CH3ONa in CH3OH was added to the tubes containing lipid samples extracted by the Bligh and Dyer method as described above. The caps were placed on tubes, screwed on about ¾ of the way (i.e., not tight), then the tubes were heated at 60° C. for 30 minutes. The mixture was chilled in ice bath and 1 ml of 1.0 N HCl was added to the solution in the tubes. The pH of the resulting solution was checked with pH paper to make sure a pH of 7 or lower had been reached. 0.5 ml hexane was added into the test tube and mixed well by vortexing. The tubes were allowed to sit for a few minutes until two phases formed. The top hexane layer was removed and placed in a separate tube for storage until analysis, which was done by GC/FID and/or GC/MS. 2 μl of the hexane layer was injected into an Agilent GC (model 6890)/MS (model 5973). For routine samples a Supelco Equity-1 column (15 m×0.25 mm×0.25 μm film thickness; catalog #28045-U) was used with an FID detector (GC/FID). When an unknown peak needed to be identified, the same column was used with an Agilent MSD detector (GC/MS). When samples requiring difficult separations that were impossible to achieve on a 15 m column were analyzed (e.g., the separation of oleic from elaidic acid), a Supelco S-2380 column (100 m×0.25 mm×0.25 μm film thickness; catalog #24317) was used.
For preparation of samples for FAME analysis, the working stock was used to inoculate 40 ml of medium containing free fatty acids and the cultures were grown overnight. The cell pellet was harvested by centrifugation and was washed twice with phosphate buffered saline (PBS, Bio-Rad Laboratories, Hercules, Calif.) and 5 g/l BSA, then two more times with PBS. Cell pellets were stored at −80° C. until analyzed by FAME using a transesterification protocol, which quantifies fatty acids that have been incorporated in membrane lipids, but not free fatty acids associated with the cell membrane. The FAME analysis is described by Christie (1993) (In Advances in Lipid Methodology—Two, pp. 69-111, Ed. W. W. Christie, Oily Press, Dundee).
Cultures of Lactobacillus plantarum strain PN0512 were grown in media containing stearic acid along with control cultures (with no added fatty acids to the media), as described in General Methods. The membrane composition was analyzed by FAME analysis as described in General Methods as well. The results of FAME analyses shown in Table 6 indicate that stearic acid (C18:0), when added to the growth medium of a culture of strain PN0512, was incorporated into the cell membrane thereby resulting in a substantial increase of the amount of stearic fatty acid in the cell membrane.

[3] = test system: L. plantarum strain PN0512; assay: Growth yield (OD600) in isobutanol, stearic acid fed and unfed cultures; type: cell-based, Lactobacillus plantarum; conditions: for OD600 fed Stearic: stearic acid 50 mg per liter, 25 hours, 30° C.
Procedure: For growth yield experiments, 5 ml of medium with test fatty acids (10-500 mg per liter) and varying concentrations of isobutanol in 15 ml screw cap tubes was inoculated with 12.5 μl of the working stock giving an initial OD600 of 0.012. The caps were tightly sealed and incubated at 30° C. on a roller drum for 20 to 26 hours, at which time 1.0 ml was removed and OD600 was measured with a blank of medium amended with the fatty acid. All solvent concentrations are reported as % (w/v).
Growth of L. plantarum cultures in the media described in General Methods and containing varying concentrations of isobutanol was measured and compared with the cultures fed (supplemented with) stearic acid at a final concentration of 50 mg per liter of medium. Cultures were prepared as described in General Methods.

CCCCC/C=C\C/C=C\CCCCCCCC(=O)O [Linoleic]
Supports growth of BP63 [1]: YES

CCCCCC/C=C\CCCCCCCCCC(=O)O [cis-Vaccenic]
Supports growth of BP63 [1]: YES

CCCCCCCC[C@@H]1C[C@@H]1CCCCCCCC(=O)O [dihydrosterculic, Dihydrosterculic acid]
Supports growth of BP63 [1]: YES

CCCCCCCC/C=C\CCCCCCCCCC(=O)O [cis 11-eicosenoic]
Supports growth of BP63 [1]: YES

CCCCCC/C=C\CCCCCCCCCCCC(=O)O [cis 13 eicosenoic]
Supports growth of BP63 [1]: no

CCCCCCCC/C=C\CCCCCCCCCCCC(=O)O [Erucic]
Supports growth of BP63 [1]: Very slight growth

CCCCCCCCCCCCCCCC(=O)O [Palmitic, Hexadecanoic Acid]
Supports growth of BP63 [1]: no

CCCCCCCCCCCCCCCCCC(=O)O [Stearic Acid, Octadecanoic Acid]
Supports growth of BP63 [1]: no
Membrane Fatty Acid Effect (stearic acid fed)/(stearic acid not fed), C16:0 ([2]; ratio of molar %): 0.52
Membrane Fatty Acid Effect (stearic acid fed)/(stearic acid not fed), C16:1 ([2]; ratio of molar %): 1.30
Membrane Fatty Acid Effect (stearic acid fed)/(stearic acid not fed), C18:0 ([2]; ratio of molar %): 33.2
Membrane Fatty Acid Effect (stearic acid fed)/(stearic acid not fed), C18:1, cis ([2]; ratio of molar %): 0.78
Membrane Fatty Acid Effect (stearic acid fed)/(stearic acid not fed), cyc-C19:0 ([2]; ratio of molar %): 1.23
Membrane Fatty Acid Content, C16:0 ([2]; stearic acid (C18:0) fed): 14.1 molar %
Membrane Fatty Acid Content, C16:1 ([2]; stearic acid (C18:0) fed): 10.0 molar %
Membrane Fatty Acid Content, C18:0 ([2]; stearic acid (C18:0) fed): 16.6 molar %
Membrane Fatty Acid Content, C18:1, cis ([2]; stearic acid (C18:0) fed): 34.4 molar %
Membrane Fatty Acid Content, cyc-C19:0 ([2]; stearic acid (C18:0) fed): 25.0 molar %
increase of molar % of stearic acid in the cell membrane ([2]; with stearic acid feeding): more than 30 fold
increase of molar ratio saturated/unsaturated fatty acids ([2]; with stearic acid feeding): 16%
molar ratio of saturated fatty acids (C16:0 and C18:0) to unsaturated fatty acids (C16:1 and C18:1, cis) ([2]; with stearic acid feeding (0.53 without)): 0.69
OD600 Ratio OD600fed/OD600unfed control ([3]; 0 % w/v isobutanol): 1.08
OD600 fed Stearic ([3]; 0 % w/v isobutanol): 1.452
OD600 Ratio OD600fed/OD600unfed control ([3]; 2.3 % w/v isobutanol): 1.18
OD600 fed Stearic ([3]; 2.3 % w/v isobutanol): 0.860
OD600 Ratio OD600fed/OD600unfed control ([3]; 2.5 % w/v isobutanol): 1.23
OD600 fed Stearic ([3]; 2.5 % w/v isobutanol): 0.422
OD600 Ratio OD600fed/OD600unfed control ([3]; 2.7 % w/v isobutanol): 1.57^b
OD600 fed Stearic ([3]; 2.7 % w/v isobutanol): 0.206
OD600 Ratio OD600fed/OD600unfed control ([3]; 2.9 % w/v isobutanol): 1.92
OD600 fed Stearic ([3]; 2.9 % w/v isobutanol): 0.098
growth yield of stearic acid fed cultures compared with control cultures ([3]; all tested concentrations of isobutanol): greater

CCCCC/C=C\C/C=C\CCCCCCCCCC(=O)O [cis-11,14-Eicosadienoic]
Supports growth of BP63 [1]: Partial growth

CCCCCCCC/C=C/CCCCCCCC(=O)O [Elaidic]
Supports growth of BP63 [1]: YES

CCCCCCCCCCCCCC(=O)O [Myristic, Tetradecanoic Acid]
Supports growth of BP63 [1]: no

CCCCCC/C=C\CCCCCCCC(=O)O [Palmitoleic]
Supports growth of BP63 [1]: YES
